Data on 21 molecules can be found in patent US20260334439A1, “BCAT2 INHIBITORS” (Agios Pharmaceuticals, Inc., priority 2023, published 2026).

Assay [1] deals with T1, BCAT2 (Homo sapiens, UniProt O15382).
T1 sequence (O15382 28-392): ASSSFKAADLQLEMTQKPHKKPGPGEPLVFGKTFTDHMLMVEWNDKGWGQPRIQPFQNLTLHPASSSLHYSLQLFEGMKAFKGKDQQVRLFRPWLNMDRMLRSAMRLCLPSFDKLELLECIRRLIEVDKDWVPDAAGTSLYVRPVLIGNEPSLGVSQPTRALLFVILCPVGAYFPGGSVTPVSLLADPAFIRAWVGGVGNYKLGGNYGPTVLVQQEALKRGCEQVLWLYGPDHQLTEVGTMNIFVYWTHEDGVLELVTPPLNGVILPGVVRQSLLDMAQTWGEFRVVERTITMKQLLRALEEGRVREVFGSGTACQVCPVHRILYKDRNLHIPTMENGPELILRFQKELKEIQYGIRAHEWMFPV
The assay can be described thus: BCAT2 in vitro enzyme inhibition assay (hBCAT2, glutamate dehydrogenase/diaphorase/resazurin coupled fluorescence read). The assay is classed as biochemical. As to conditions: hBCAT2, 1 h preincubation at 25° C., one hour reaction; average where tested multiple times. An outline of the steps: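 Coupled GDH/diaphorase/resazurin fluorescence (Ex 540/Em 590) read after 1 h reaction at 25 °C, SDS-stopped; enzyme (0.33 μg/mL in mix) first preincubated 1 h with compound, 10-point 3-fold series from 100 μM final, Tris pH 8.0 buffer with NaCl, BSA; technical duplicates, averaged across tests.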

Assay [2] deals with T1, BCAT2. The assay can be described thus: BCAT2 cell inhibition using engineered A549 cells (MUT KO, BCAT1 KO; 13C6-KMV formation by LC-MS/MS). The assay is classed as cell-based. Details: expressed endogenous BCAT2; endogenous in cells; host or cells: A549 cells, MUT knockout and BCAT1 knockout. The source says: Endogenous Methylmalonyl-CoA Mutase (MUT) and Branched Chain Aminotransferase 1 (BCAT1) in A549 cells was knocked out by CRISPR/CAS9 using the targeting system from TransOMIC Technologies. The following guide sequence was cloned into pCLIP-ALL-EFS-Blast vector to target human MUT: […] (SEQ ID NO: 35). The following guide sequence was cloned into pCLIP-ALL-EFS-Puro vector to target human BCAT1: […] (SEQ ID NO: 36). The resulting plasmids were co-transfected into 293T cells with VSV-G, P-PEX, and Fugene-6. Lentivirus was harvested and A549 cells were first transduced with lentivirus targeting MUT and polybrene. After genetic selection with blasticidin clonal selection was performed and validated via western blot analysis to confirm MUT was no longer expressed. These MUT KO cells were then transduced with lentivirus targeting BCAT1 and polybrene. After selection with puromycin clonal selection was performed and clones were validated via western blot analysis to confirm BCAT1 was no longer expressed in these cells. The result was an engineered A549 cell line that expressed endogenous BCAT2.
For KMV cell assays, on day 1, 25,000 cells/100 μL EMEM (10% FBS) were seeded in each well of a 96-well plate. On day 2, medium was replaced with 50 μL fresh EMEM (10% dialyzed FBS) containing 2× the assay concentration of experimental compound. After 15 minutes, 50 μL of 800 uM ^15N,^13C6-Isoleucine in EMEM (10% dialyzed FBS) was added to each well and incubated for 24 hours. On day 3, 50 μL of media from each well was collected and transferred to another 96-well plate for ^13C6-3-Methyl-2-Oxopentanoic Acid (KMV) analysis via LC-MS/MS. In the remaining assay wells 50 μL of Promega Glo CTG reagent was added and luminescence was measured as a cell viability readout.
For LC-MS/MS analysis 5 μL of cell assay media from each well was transferred to a 96-well plate and 45 μL of ACN:0.1% NaOH (50:50, v/v)^+0.20 nM d8-KMV was added and mixed on a shaker. 15 μL was transferred to a new 96-well plate and 15 μL of 10 mg/mL PFBHA solution was added and mixed on the shaker. The reaction was placed on ice for 30 minutes and quenched with 10 μL of ACN: Acetone (50:50, v/v) on a shaker. The resulting mixture was diluted with 100 μL of ACN:0.1% NaOH (50:50, v/v) on a shaker. 10 μL of sample were injected on the Shimadzu 20AD LC-MS/MS to quantify ^13C6-KMV.
Where a compound was tested multiple times, the average value of the tests is reported.

In general, IC50 refers to the point on the concentration scale where inhibition reaches its midpoint. `CC(Oc1ccc(Cl)cc1C(=O)N[C@H]1CCC[C@@H](n2c(-c3ccccc3F)nc3cnc(-c4nc[nH]n4)cc32)C1)C(F)(F)F` (stereo partly drawn) [Example 88, 5-chloro-N-((1S,3R)-3-(2-(2-fluorophenyl)-6-(1H-1,2,4-triazol-3-yl)-1H-imidazo[4,5-c]pyridin-1-yl)cyclohexyl)-2-((1,1,1-trifluoropropan-2-yl)oxy)benzamide]: the half-inhibitory concentration (IC50) in assay [1] was below 100 nM; in assay [2], 100 to 500 nM.
With `O=C1c2cc(Cl)ccc2OCN1[C@H]1CCC[C@@H](n2c(-c3ccccc3F)nc3cnc(-c4ncco4)cc32)[C@@H]1O` [Example 215, 6-chloro-3-((1S,2S,3R)-3-(2-(2-fluorophenyl)-6-(oxazol-2-yl)-1H-imidazo[4,5-c]pyridin-1-yl)-2-hydroxycyclohexyl)-2,3-dihydro-4H-benzo[e][1,3]oxazin-4-one], the 50% inhibitory concentration (IC50) in assay [1] and in assay [2] was below 100 nM in each case.
In the case of `O=C1c2cc(F)ccc2CN1[C@H]1CCC[C@@H](n2c(-c3c(F)cccc3OC(F)F)nc3cnc(-c4nc[nH]n4)cc32)[C@@H]1O` [compound 189], the concentration for half-maximal inhibition (IC50) in assay [1] and in assay [2] was below 100 nM each time.
With `O=C(N[C@H]1CCC[C@@H](n2c(-c3ccccc3OC(F)F)nc3cnc(-c4nc[nH]n4)cc32)C1)c1cc(Cl)ccc1OCCO` [compound 73], the IC50 in assay [1] and in assay [2] was below 100 nM in each case.
For `CCNc1ccc(Cl)cc1C(=O)N[C@H]1CCC[C@@H](n2c(-c3ccccc3F)nc3cnc(-c4nc[nH]n4)cc32)C1` [Example 32, 5-chloro-2-(ethylamino)-N-((1S,3R)-3-(2-(2-fluorophenyl)-6-(1H-1,2,4-triazol-3-yl)-1H-imidazo[4,5-c]pyridin-1-yl)cyclohexyl)benzamide], the IC50 in assay [1] is 100 to 500 nM; in assay [2] (read-out: BCAT2 Cell Inhibition (IC50), engineered A549 cells, 24 hours, 13C6-KMV in media, average where tested multiple times), above 1000 nM.
On to `O=C1c2cc(F)ccc2CN1[C@H]1CCC[C@@H](n2c(-c3ccccc3F)nc3cnc(-c4nc[nH]n4)cc32)[C@@H]1O` [Example 184, 6-fluoro-2-((1S,2S,3R)-3-(2-(2-fluorophenyl)-6-(1H-1,2,4-triazol-3-yl)-1H-imidazo[4,5-c]pyridin-1-yl)-2-hydroxycyclohexyl)isoindolin-1-one], for which the IC50 in assay [1] and in assay [2] was below 100 nM each time.
Regarding `O=C(N[C@H]1CCC[C@@H](n2c(-c3ccccc3F)nc3cnc(-c4nc[nH]n4)cc32)C1)c1ccc(Cl)cn1` [Example 13, 5-chloro-N-((1S,3R)-3-(2-(2-fluorophenyl)-6-(1H-1,2,4-triazol-3-yl)-1H-imidazo[4,5-c]pyridin-1-yl)cyclohexyl)picolinamide], the IC50 in assay [1] and in assay [2] was below 100 nM throughout.
Turning to `O=C1c2cc(F)ccc2CN1[C@H]1CCC[C@@H](n2c(-c3ccccc3OC(F)F)nc3ccc(-c4nc[nH]n4)c(F)c32)C1` [compound 238], the IC50 in assay [1] and in assay [2] was below 100 nM in each case.
In the case of `CC(=O)N1C[C@H](NC(=O)c2cc(F)ccn2)C[C@H](n2c(-c3ccccc3F)nc3cnc(-c4nc(C)co4)cc32)C1` [Example 167, N-((3R,5S)-1-acetyl-5-(2-(2-fluorophenyl)-6-(4-methyloxazol-2-yl)-1H-imidazo[4,5-c]pyridin-1-yl)piperidin-3-yl)-4-fluoropicolinamide], the IC50 in assay [1] and in assay [2] was below 100 nM each time.
For `O=C1c2cc(F)ccc2CN1[C@H]1CCC[C@@H](n2c(-c3c(F)cccc3F)nc3cnc(-c4ncccn4)cc32)[C@@H]1O` [Example 187, 2-((1S,2S,3R)-3-(2-(2,6-difluorophenyl)-6-(pyrimidin-2-yl)-1H-imidazo[4,5-c]pyridin-1-yl)-2-hydroxycyclohexyl)-6-fluoroisoindolin-1-one], the IC50 in assay [1] is below 100 nM; in assay [2], 100 to 500 nM.
For the molecule `O=C(N[C@H]1CCC[C@@H](n2c(-c3ccccc3F)nc3cnc(-c4nc[nH]n4)cc32)C1)c1cc(Cl)ccc1CO` [Example 40, 5-chloro-N-((1S,3R)-3-(2-(2-fluorophenyl)-6-(1H-1,2,4-triazol-3-yl)-1H-imidazo[4,5-c]pyridin-1-yl)cyclohexyl)-2-(hydroxymethyl)benzamide], the half-inhibitory concentration (IC50) in assay [1] is below 100 nM; in assay [2] it was 100 to 500 nM.
As for `O=C(N[C@H]1CCC[C@@H](n2c(-c3ccccc3OC(F)F)nc3cnc(-c4nc[nH]n4)cc32)C1)c1cc(F)ccn1` [compound 30], the IC50 in assay [1] and in assay [2] was below 100 nM in each case.
In the case of `O=C1c2cc(F)ccc2CCN1[C@H]1CCC[C@@H](n2c(-c3ccccc3F)nc3cnc(-c4nc[nH]n4)cc32)C1` [Example 212, 7-fluoro-2-((1S,3R)-3-(2-(2-fluorophenyl)-6-(1H-1,2,4-triazol-3-yl)-1H-imidazo[4,5-c]pyridin-1-yl)cyclohexyl)-3,4-dihydroisoquinolin-1(2H)-one], the IC50 in assay [1] and in assay [2] was below 100 nM throughout.
Molecule `O=C1c2cc(F)ccc2CN1[C@H]1CCC[C@@H](n2c(-c3ccccc3F)nc3cnc(-c4ncccc4F)cc32)[C@@H]1O` [Example 190, 6-fluoro-2-((1S,2S,3R)-3-(2-(2-fluorophenyl)-6-(3-fluoropyridin-2-yl)-1H-imidazo[4,5-c]pyridin-1-yl)-2-hydroxycyclohexyl)isoindolin-1-one] registered a half-maximal inhibitory concentration (IC50) in assay [2] below 100 nM.
In the case of `O=C(N[C@H]1CCC[C@@H](n2c(-c3ncccc3OC(F)F)nc3cnc(-c4nc[nH]n4)cc32)C1)c1cc(Cl)ccc1OC(F)F` [compound 66], in assay [1], the IC50 is below 100 nM.
On to `O=C(N[C@H]1CCC[C@@H](n2c(-c3ccccc3OC(F)F)nc3cnc(-c4nc[nH]n4)cc32)C1)c1cc(Cl)ccc1OC(F)F` [compound 51], for which the IC50 in assay [1] is below 100 nM.
As to `O=C(N[C@H]1C[C@@H](n2c(-c3ccccc3OCCO)nc3ccc(-c4nc[nH]n4)cc32)CC(F)(F)C1)c1cc(F)ccn1` [Example 232, N-((1S,5R)-3,3-difluoro-5-(2-(2-(2-hydroxyethoxy)phenyl)-6-(1H-1,2,4-triazol-3-yl)-1H-benzo[d]imidazol-1-yl)cyclohexyl)-4-fluoropicolinamide], in assay [1], the concentration for half-maximal inhibition (IC50) fell in the range of 100 to 500 nM.
The same measure, in the same setting: next, `CN1C[C@@H](NC(=O)c2cc(Cl)ccn2)C[C@@H](n2c(-c3ccccc3OCCO)nc3ccc(-c4ncccn4)cc32)C1` [Example 235, 4-chloro-N-((3S,5R)-5-(2-(2-(2-hydroxyethoxy)phenyl)-6-(pyr-imidin-2-yl)-1H-benzo[d]imid-azol-1-yl)-1-methylpiperidin-3-yl)picolinamide]: above 1000 nM; `COc1ccc(Cl)cc1C(=O)N[C@H]1C[C@@H](n2c(-c3ccccc3F)nc3cnc(-c4nc[nH]n4)cc32)CN(C)C1` [Example 135, 5-chloro-N-((3S,5R)-5-(2-(2-fluorophenyl)-6-(1H-1,2,4-triazol-3-yl)-1H-imidazo[4,5-c]pyridin-1-yl)-1-methylpiperidin-3-yl)-2-methoxybenzamide]: 500 to 1000 nM; `O=C(N[C@H]1CCC[C@@H](n2c(-c3ccccc3F)nc3ccc(-c4nc[nH]n4)cc32)[C@@H]1O)c1cc(F)ccc1F` [Example 225, 2,5-difluoro-N-((1S,2R,3R)-3-(2-(2-fluorophenyl)-6-(1H-1,2,4-triazol-3-yl)-1H-benzo[d]imid-azol-1-yl)-2-hydroxycyclohex-yl)benzamide]: below 100 nM.
The same measure, in the same setting: next, `O=C(N[C@H]1CCC[C@@H](n2c(-c3ncccc3OC(F)F)nc3cnc(-c4nc[nH]n4)cc32)C1)c1cc(F)ccn1` [compound 63]: below 100 nM.
